The text below walks through data of article PMC4620497 (Scientific Reports, 2015).

Each structure is given as a SMILES string.

For one experiment, the target named is T1, IGF1R (Homo sapiens, UniProt P08069).
T1 construct: DNA tag (qPCR read-out); purchased Ambit Biosciences (KINOMEscan service)
Set-up: method as in earlier work. The settings on record: Table S1; cited from earlier work.

The next experiment addresses T2, CLK1 (Homo sapiens, UniProt P49759).
T2 construct: purchased DiscoveRx KINOMEscan (Ambit Biosciences)
Kind of experiment: KINOMEscan panel screen. It is filed as binding. As to conditions: read-out: Percent Control(%).

The target of the next experiment is T3, PCTK3 (Homo sapiens, UniProt Q07002).
T3 construct: purchased DiscoveRx KINOMEscan (Ambit Biosciences)
Kind of experiment: KINOMEscan panel screen. It is filed as binding. As to conditions: read-out: Percent Control(%).

The next experiment concerns the target T4, LKB1 (Homo sapiens, UniProt Q15831).
T4 construct: purchased DiscoveRx KINOMEscan (Ambit Biosciences)
Kind of experiment: KINOMEscan panel screen. The settings on record: read-out: Percent Control(%). It is filed as binding.

The test system of experiment [1] is phosphorylation of FLT3 and STAT5 in MV4-11 tumors. Description: FLT3 signaling in MV4-11 xenograft tumors (western blot). It is filed as in vivo, NOD-SCID mice. The settings on record: single oral dose 10 mg/kg. As to the method:
To examine the effects of SKLB-677 on FLT3 and Wnt/β-catenin signaling in vivo, the same MV4-11 xenograft model was used and MV4-11 tumors were harvested at specific time points (0 h, 4 h, 6 h, 8 h, 12 h, and 24 h) after the treatment of 10 mg/kg SKLB-677 (3 mice for each time point). Western blot assays and real-time qPCR assays were conducted on the harvested tumors.
Western blot analysis was performed as previously described. Whole protein lysates of tumor samples were collected by the abrading of tumors in liquid nitrogen. […] Quantitative analysis of the protein level was performed with NIH image analysis software, ImageJ (normalized relative to the vehicle control).
Figure 5 In vivo effects of SKLB-677. […] The tumor volume and body weight were measured every 3 days during the treatment. […] Ki67 and TUNEL were detected with immunohistochemical. […] Tumors were harvested at the indicated time points, and the FLT3 signaling pathway was detected using western blot assays. […] (e) The same harvested tumors were detected using real-time qPCR assays to test the expression of AXIN2 and NKD1 (the target genes of Wnt/β-catenin pathway). […] The plasma concentrations were determined using liquid–liquid extraction followed by high-performance liquid chromatography (HPLC) with tandem mass spectrometric detection.
(A western blot detects proteins with antibodies after separation by electrophoresis.)

The next experiment concerns the target FLT3-D835H (Homo sapiens, UniProt P36888, D835H). Description: KINOMEscan kinase binding assay (Kd). Details: purchased Ambit Biosciences (KINOMEscan).
Another experiment addresses ROCK1 (Homo sapiens, UniProt Q13464). Description: KINOMEscan panel screen. Format: binding. The settings on record: read-out: Percent Control(%).
The target of the next experiment is T5, MARK3 (Homo sapiens, UniProt P27448).
T5 construct: purchased DiscoveRx KINOMEscan (Ambit Biosciences)
Kind of experiment: KINOMEscan panel screen. Format: binding. As to conditions: read-out: Percent Control(%).

The next experiment concerns the target T6, ACVR2A (Homo sapiens, UniProt P27037).
T6 construct: purchased DiscoveRx KINOMEscan (Ambit Biosciences)
Kind of experiment: KINOMEscan panel screen. It is filed as binding. As to conditions: read-out: Percent Control(%).

A further experiment deals with T7, RIOK3 (Homo sapiens, UniProt O14730).
T7 construct: purchased DiscoveRx KINOMEscan (Ambit Biosciences)
Kind of experiment: KINOMEscan panel screen. It is filed as binding. As to conditions: read-out: Percent Control(%).

Another experiment has as its target T8, KIT(V559D) (Homo sapiens, UniProt P10721, V559D).
T8 construct: purchased DiscoveRx KINOMEscan (Ambit Biosciences)
Description: KINOMEscan panel screen. As to conditions: read-out: Percent Control(%). Format: binding.

The next experiment has as its target T9, DYRK1A (Homo sapiens, UniProt Q13627).
T9 construct: purchased DiscoveRx KINOMEscan (Ambit Biosciences)
Kind of experiment: KINOMEscan panel screen. Format: binding. The settings on record: read-out: Percent Control(%).

For the next experiment, the target named is T10, KIT-autoinhibited (Homo sapiens, UniProt P10721).
T10 construct: purchased DiscoveRx KINOMEscan (Ambit Biosciences)
T10 sequence (P10721 546-976 limits assumed): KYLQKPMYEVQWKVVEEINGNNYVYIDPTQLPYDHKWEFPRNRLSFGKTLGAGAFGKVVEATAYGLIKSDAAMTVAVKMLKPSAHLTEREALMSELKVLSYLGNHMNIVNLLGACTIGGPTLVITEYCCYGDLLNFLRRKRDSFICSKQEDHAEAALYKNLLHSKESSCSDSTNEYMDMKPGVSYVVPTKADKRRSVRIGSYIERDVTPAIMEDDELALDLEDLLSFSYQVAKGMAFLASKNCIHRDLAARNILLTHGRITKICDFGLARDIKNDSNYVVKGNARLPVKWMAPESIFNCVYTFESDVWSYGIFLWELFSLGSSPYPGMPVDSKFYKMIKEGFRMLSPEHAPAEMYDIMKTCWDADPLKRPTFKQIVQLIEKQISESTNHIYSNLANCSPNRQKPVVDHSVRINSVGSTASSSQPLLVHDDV
Description: KINOMEscan panel screen. It is filed as binding. The settings on record: read-out: Percent Control(%).

Experiment [2] deals with T11, ABL1(F317I)-phosphorylated (Homo sapiens, UniProt P00519, F317I).
T11 construct: purchased DiscoveRx KINOMEscan (Ambit Biosciences)
T11 sequence (P00519 229-512 F317I limits assumed): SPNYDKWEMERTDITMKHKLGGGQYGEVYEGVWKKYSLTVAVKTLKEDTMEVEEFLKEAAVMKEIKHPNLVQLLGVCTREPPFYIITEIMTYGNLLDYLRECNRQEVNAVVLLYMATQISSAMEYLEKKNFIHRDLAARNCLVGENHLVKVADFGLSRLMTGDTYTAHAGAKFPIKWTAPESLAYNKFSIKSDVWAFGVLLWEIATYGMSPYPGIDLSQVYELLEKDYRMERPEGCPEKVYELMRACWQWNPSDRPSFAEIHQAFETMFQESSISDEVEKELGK
Kind of experiment: KINOMEscan panel screen. Format: binding. The settings on record: read-out: Percent Control(%).

The target in another experiment is T12, SRC (Homo sapiens, UniProt P12931).
T12 construct: purchased DiscoveRx KINOMEscan (Ambit Biosciences)
Description: KINOMEscan panel screen. Format: binding. The settings on record: read-out: Percent Control(%).

Another experiment deals with T13, BRSK2 (Homo sapiens, UniProt Q8IWQ3).
T13 construct: purchased DiscoveRx KINOMEscan (Ambit Biosciences)
Kind of experiment: KINOMEscan panel screen. The settings on record: read-out: Percent Control(%). Format: binding.

The next experiment has as its target T14, TIE2 (Homo sapiens, UniProt Q02763).
T14 construct: purchased DiscoveRx KINOMEscan (Ambit Biosciences)
Description: KINOMEscan panel screen. Format: binding. As to conditions: read-out: Percent Control(%).

Another experiment addresses T15, CDKL1 (Homo sapiens, UniProt Q00532).
T15 construct: purchased DiscoveRx KINOMEscan (Ambit Biosciences)
Description: KINOMEscan panel screen. Format: binding. As to conditions: read-out: Percent Control(%).

The next experiment has as its target T16, KIT(D816H) (Homo sapiens, UniProt P10721, D816H).
T16 construct: purchased DiscoveRx KINOMEscan (Ambit Biosciences)
Kind of experiment: KINOMEscan panel screen. Format: binding. The settings on record: read-out: Percent Control(%).

The next experiment concerns the target T17, EPHA4 (Homo sapiens, UniProt P54764).
T17 construct: purchased DiscoveRx KINOMEscan (Ambit Biosciences)
Description: KINOMEscan panel screen. It is filed as binding. As to conditions: read-out: Percent Control(%).

T17 sequence (P54764 20-986): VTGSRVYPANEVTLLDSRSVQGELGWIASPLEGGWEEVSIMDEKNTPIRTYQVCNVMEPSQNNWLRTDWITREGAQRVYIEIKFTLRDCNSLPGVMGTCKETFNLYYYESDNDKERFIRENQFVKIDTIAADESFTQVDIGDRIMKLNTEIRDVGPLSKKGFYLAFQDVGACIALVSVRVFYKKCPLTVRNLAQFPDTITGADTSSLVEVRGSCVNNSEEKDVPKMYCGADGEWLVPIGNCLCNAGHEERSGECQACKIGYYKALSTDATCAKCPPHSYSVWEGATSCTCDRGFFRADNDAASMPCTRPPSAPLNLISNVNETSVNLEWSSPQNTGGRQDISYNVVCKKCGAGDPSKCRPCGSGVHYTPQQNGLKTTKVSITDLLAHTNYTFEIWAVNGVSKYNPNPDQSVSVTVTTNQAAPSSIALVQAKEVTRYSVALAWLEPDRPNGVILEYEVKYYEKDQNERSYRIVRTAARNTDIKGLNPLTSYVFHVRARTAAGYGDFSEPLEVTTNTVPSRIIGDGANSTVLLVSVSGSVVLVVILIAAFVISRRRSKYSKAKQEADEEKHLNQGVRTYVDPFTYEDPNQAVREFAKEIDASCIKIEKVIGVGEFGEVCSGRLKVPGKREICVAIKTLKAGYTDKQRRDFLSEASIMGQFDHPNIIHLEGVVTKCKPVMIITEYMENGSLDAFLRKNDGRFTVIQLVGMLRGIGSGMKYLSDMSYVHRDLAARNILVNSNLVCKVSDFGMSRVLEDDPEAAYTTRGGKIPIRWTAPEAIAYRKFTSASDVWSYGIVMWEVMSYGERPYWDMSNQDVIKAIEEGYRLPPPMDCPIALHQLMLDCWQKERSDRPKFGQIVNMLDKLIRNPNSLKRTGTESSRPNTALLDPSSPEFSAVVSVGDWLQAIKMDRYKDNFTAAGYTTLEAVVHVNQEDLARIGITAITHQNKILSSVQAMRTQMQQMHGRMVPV
T1 sequence (P08069 31-1367): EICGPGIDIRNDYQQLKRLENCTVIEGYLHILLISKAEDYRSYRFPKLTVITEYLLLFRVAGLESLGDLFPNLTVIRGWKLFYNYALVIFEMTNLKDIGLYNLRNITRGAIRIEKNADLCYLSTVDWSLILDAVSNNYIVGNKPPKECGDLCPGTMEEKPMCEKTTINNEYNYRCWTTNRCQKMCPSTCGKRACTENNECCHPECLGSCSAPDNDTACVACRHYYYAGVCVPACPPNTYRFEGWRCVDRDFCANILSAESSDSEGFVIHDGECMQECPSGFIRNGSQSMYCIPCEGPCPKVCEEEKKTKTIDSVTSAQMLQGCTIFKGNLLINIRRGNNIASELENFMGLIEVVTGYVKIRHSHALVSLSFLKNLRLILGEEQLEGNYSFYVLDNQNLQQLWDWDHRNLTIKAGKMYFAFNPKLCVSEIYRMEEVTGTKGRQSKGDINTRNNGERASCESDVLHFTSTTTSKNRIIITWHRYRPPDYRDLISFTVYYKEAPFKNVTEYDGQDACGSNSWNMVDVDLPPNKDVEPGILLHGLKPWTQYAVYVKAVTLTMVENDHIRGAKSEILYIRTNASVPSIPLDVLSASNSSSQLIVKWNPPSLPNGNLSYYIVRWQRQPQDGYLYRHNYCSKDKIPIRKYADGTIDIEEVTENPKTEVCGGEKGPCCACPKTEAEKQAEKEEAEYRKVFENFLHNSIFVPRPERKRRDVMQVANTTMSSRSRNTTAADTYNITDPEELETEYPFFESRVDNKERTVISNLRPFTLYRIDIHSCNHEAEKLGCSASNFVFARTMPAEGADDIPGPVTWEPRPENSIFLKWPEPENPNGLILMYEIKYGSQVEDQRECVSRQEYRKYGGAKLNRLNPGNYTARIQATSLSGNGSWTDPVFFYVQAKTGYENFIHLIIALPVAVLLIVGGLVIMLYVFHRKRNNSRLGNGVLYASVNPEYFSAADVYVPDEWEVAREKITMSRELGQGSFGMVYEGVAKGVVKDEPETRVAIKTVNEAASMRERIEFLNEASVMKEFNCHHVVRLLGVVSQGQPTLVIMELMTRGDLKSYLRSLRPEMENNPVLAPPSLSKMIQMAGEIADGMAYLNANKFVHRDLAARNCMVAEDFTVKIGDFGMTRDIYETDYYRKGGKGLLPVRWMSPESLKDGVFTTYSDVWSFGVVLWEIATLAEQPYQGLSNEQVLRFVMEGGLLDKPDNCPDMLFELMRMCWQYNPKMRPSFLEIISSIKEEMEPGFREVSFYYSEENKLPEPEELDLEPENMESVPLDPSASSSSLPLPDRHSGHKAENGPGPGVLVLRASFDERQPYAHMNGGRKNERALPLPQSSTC
T14 sequence (Q02763 23-1124): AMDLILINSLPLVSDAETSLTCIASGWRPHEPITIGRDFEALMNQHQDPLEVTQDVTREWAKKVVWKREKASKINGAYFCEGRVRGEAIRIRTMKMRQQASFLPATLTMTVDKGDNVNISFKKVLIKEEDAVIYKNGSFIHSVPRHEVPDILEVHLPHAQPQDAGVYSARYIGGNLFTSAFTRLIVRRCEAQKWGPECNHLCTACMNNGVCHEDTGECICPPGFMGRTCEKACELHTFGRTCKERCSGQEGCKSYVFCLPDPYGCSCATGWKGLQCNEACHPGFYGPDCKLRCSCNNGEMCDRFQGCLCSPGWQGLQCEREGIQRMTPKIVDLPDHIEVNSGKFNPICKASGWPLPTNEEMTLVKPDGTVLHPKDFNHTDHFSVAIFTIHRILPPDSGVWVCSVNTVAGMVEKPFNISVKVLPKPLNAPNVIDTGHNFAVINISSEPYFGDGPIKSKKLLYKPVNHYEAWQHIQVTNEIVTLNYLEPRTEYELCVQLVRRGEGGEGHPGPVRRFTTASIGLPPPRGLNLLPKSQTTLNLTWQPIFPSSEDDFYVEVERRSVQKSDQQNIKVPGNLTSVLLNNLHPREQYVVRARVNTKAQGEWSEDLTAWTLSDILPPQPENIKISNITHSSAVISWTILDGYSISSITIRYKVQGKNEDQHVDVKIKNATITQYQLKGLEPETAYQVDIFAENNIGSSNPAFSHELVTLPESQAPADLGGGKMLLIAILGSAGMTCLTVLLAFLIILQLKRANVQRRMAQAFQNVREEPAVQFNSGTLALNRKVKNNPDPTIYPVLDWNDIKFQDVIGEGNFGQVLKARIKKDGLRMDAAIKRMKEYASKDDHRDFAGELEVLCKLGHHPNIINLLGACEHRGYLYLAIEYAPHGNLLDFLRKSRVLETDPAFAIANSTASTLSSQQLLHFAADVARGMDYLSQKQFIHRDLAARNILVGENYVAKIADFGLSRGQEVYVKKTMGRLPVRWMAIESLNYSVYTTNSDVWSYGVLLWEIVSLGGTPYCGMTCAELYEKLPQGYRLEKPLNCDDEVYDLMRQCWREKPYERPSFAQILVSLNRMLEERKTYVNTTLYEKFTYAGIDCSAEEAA
T16 sequence (P10721 26-976 D816H): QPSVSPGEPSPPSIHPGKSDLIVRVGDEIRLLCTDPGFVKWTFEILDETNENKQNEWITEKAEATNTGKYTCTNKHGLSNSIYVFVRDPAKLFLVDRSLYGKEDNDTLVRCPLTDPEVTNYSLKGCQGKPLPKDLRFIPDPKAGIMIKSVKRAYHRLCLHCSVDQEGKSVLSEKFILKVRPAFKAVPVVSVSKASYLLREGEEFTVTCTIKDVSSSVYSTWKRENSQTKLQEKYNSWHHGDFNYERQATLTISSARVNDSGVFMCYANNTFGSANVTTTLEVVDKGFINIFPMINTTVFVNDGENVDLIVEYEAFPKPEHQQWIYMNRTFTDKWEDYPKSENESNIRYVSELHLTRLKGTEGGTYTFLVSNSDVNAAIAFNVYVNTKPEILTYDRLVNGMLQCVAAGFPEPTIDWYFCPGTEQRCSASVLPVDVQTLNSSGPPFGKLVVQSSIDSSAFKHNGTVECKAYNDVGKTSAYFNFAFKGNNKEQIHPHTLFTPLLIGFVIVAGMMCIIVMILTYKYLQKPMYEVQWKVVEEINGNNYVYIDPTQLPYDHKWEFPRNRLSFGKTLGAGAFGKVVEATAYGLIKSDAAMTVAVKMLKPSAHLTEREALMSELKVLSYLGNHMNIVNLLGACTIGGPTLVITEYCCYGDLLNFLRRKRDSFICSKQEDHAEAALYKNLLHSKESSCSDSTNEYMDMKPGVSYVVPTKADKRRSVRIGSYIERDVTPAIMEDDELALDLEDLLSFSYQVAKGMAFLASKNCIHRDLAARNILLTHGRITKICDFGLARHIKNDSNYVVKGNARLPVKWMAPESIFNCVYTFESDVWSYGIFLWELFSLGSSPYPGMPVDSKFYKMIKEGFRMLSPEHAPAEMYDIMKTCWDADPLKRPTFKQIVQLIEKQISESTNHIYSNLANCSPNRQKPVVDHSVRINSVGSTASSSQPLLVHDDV

For the compound `O=C(Nc1ccc(Oc2ncnc3[nH]ncc23)cc1)Nc1ccc(Cl)c(C(F)(F)F)c1` [Compound 1, 1-(4-(1H-pyrazolo[3,4-d]pyrimidin-4-yloxy)phenyl)-3-(4-chloro-3-(trifluoromethyl)phenyl)urea], at IGF1R, the IC50 (in general, the concentration at which inhibition is half-maximal) was greater than 10000 nM.

On to `CC(C)(C)c1cc(NC(=O)Nc2ccc(Oc3ncnc4[nH]ncc34)c(F)c2)no1` [SKLB-677, 1-(4-(1H-pyrazolo[3,4-d]pyrimidin-4-yloxy)-3-fluorophenyl)-3-(5-tert-butylisoxazol-3-yl)urea], for which the remaining binding at 10 µM was 5.8% at CLK1; 0.05% at PCTK3; 96% on LKB1; 100% on ROCK1; 68% on MARK3; 100% on ACVR2A. The remaining binding at 10 µM at RIOK3 came out at 100%; at KIT(V559D), 0%; at DYRK1A, 80%; at KIT-autoinhibited, 1.1%; in [2], 43%; on SRC, 9.2%. The remaining binding at 10 µM on BRSK2 turned out to be 76%; at TIE2, 0.2%; on CDKL1 it was 3.3%; on KIT(D816H) it was 8.4%; at EPHA4, 4.8%. Further, the “time for which the effects on p-FLT3 and p-STAT5 were maintained” value in [1] is listed as “up to 24 h”. For the same compound, the “phosphorylation of FLT3 and STAT5 in tumors” value in experiment [1] (4 h posttreatment) is on record as “nearly abolished”. Moreover, binding on FLT3-D835H was put at a Kd of 0.74 nM.
